Measured values from US9113629B2, “4-amino-6-(4-substituted-phenyl)-picolinates and 6-amino-2-(4-substituted-phenyl)-pyrimidine-4-carboxylates and their use as herbicides” (DOW AGROSCIENCES LLC, priority 2013, dated 2015).
Read-outs that look alike come from different tables or passages of the source.

Key:
[1] = test system: Key Broadleaf Weed and Crop Species; test: Post-emergent Test II herbicidal activity (Table 5); assay type: in vivo; settings: post-emergence, 336 h, post-emergent, 14 days after application; for pest or weed control at 70 g/ha: 70 g ai/ha; for pest or weed control at 140 g/ha: 140 g ai/ha
Outline: (§1)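 Post-emergence foliar spray, 187 L/ha, track sprayer at 43 cm above canopy. Carrier: acetone/water/IPA/DMSO/Atplus 411F/Triton X-155. Plants at 1st–2nd true leaf; subirrigated afterwards; % injury scored visually at 14 d.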

[2] = test system: Key Grass and Sedge Weeds as well as Grass Crops; test: Post-emergent Test II herbicidal activity (Table 6); assay type: in vivo; settings: post-emergence, 336 h; for pest or weed control at 70 g/ha: application rate 70 g ai/ha; for pest or weed control at 140 g/ha: application rate 140 g ai/ha
Outline: as §1

[3] = ABUTH: velvetleaf (Abutilon theophrasti), read-out: Visual Growth Reduction (%) 14 Days After Application ABUTH
[4] = AMARE: redroot pigweed (Amaranthus retroflexus), read-out: Visual Growth Reduction (%) 14 Days After Application AMARE
[5] = BRSNN: oilseed-rape, canola (Brassica napus), read-out: Visual Growth Reduction (%) 14 Days After Application BRSNN
[6] = CHEAL: lambsquarters (Chenopodium album), read-out: Visual Growth Reduction (%) 14 Days After Application CHEAL
[7] = EPHHL: wild poinsettia (Euphorbia heterophylla), read-out: Visual Growth Reduction (%) 14 Days After Application EPHHL
[8] = HELAN: sunflower (Helianthus annuus), read-out: Visual Growth Reduction (%) 14 Days After Application HELAN
[9] = VIOTR: wild pansy (Viola tricolor), read-out: Visual Growth Reduction (%) 14 Days After Application VIOTR
[10] = CYPES: yellow nutsedge (Cyperus esculentus), read-out: Visual Growth Reduction (%) 14 Days After Application, CYPES
[11] = DIGSA: crabgrass (Digitaria sanguinalis), read-out: Visual Growth Reduction (%) 14 Days After Application, DIGSA
[12] = ECHCG: barnyardgrass (Echinochloa crus-galli), read-out: Visual Growth Reduction (%) 14 Days After Application, ECHCG
[13] = ORYSA: rice (Oryza sativa), read-out: Visual Growth Reduction (%) 14 Days After Application, ORYSA
[14] = SETFA: giant foxtail (Setaria faberi), read-out: Visual Growth Reduction (%) 14 Days After Application, SETFA
[15] = SORVU: grain sorghum (Sorghum vulgare), read-out: Visual Growth Reduction (%) 14 Days After Application, SORVU
[16] = TRZSS (wheat, Triticum aestivum), read-out: Visual Growth Reduction (%) 14 Days After Application, TRZSS
[17] = ZEAMX: maize, corn (Zea mays), read-out: Visual Growth Reduction (%) 14 Days After Application, ZEAMX

**Q.** Which pest or weed control at 70 g/ha [1, 3] does the source give for `C=Cc1c(N)nc(-c2ccc(C#N)cc2F)nc1C(=O)O` [Compound 5, 6-Amino-2-(4-cyano-2-fluorophenyl)-5-vinylpyrimidine-4-carboxylic acid] here?
**A.** 0 to 29%

**Q.** What about the pest or weed control at 140 g/ha [1, 3] of the same compound?
**A.** 0 to 29%

**Q.** And the pest or weed control at 70 g/ha [1, 4]?
**A.** 0 to 29%

**Q.** And the pest or weed control at 140 g/ha [1, 4]?
**A.** 0 to 29%

**Q.** And the pest or weed control at 70 g/ha [1, 5]?
**A.** 0 to 29%

**Q.** What about the pest or weed control at 140 g/ha [1, 5] of the same compound?
**A.** 0 to 29%

**Q.** And the pest or weed control at 70 g/ha [1, 6]?
**A.** 0 to 29%

**Q.** What about the pest or weed control at 140 g/ha [1, 6] of the same compound?
**A.** 0 to 29%

**Q.** And the pest or weed control at 70 g/ha [1, 7]?
**A.** 0 to 29%

**Q.** What about the pest or weed control at 140 g/ha [1, 7] of the same compound?
**A.** 0 to 29%

**Q.** What about the pest or weed control at 70 g/ha [1, 8] of the same compound?
**A.** 85 to 94%

**Q.** What about the pest or weed control at 140 g/ha [1, 8] of the same compound?
**A.** 85 to 94%

**Q.** And the pest or weed control at 70 g/ha [1, 9]?
**A.** 0 to 29%

**Q.** And the pest or weed control at 140 g/ha [1, 9]?
**A.** 0 to 29%

**Q.** What about the pest or weed control at 70 g/ha [2, 10] of the same compound?
**A.** 0 to 29%

**Q.** What about the pest or weed control at 140 g/ha [2, 10] of the same compound?
**A.** 0 to 29%

**Q.** And the pest or weed control at 70 g/ha [2, 11]?
**A.** 0 to 29%

**Q.** And the pest or weed control at 140 g/ha [2, 11]?
**A.** 0 to 29%

**Q.** What about the pest or weed control at 70 g/ha [2, 12] of the same compound?
**A.** 0 to 29%

**Q.** And the pest or weed control at 140 g/ha [2, 12]?
**A.** 0 to 29%

**Q.** What about the pest or weed control at 70 g/ha [2, 13] of the same compound?
**A.** 0 to 29%

**Q.** What about the pest or weed control at 140 g/ha [2, 13] of the same compound?
**A.** 0 to 29%

**Q.** What about the pest or weed control at 70 g/ha [2, 14] of the same compound?
**A.** 0 to 29%

**Q.** And the pest or weed control at 140 g/ha [2, 14]?
**A.** 0 to 29%

**Q.** And the pest or weed control at 70 g/ha [2, 15]?
**A.** 0 to 29%

**Q.** What about the pest or weed control at 140 g/ha [2, 15] of the same compound?
**A.** 0 to 29%

**Q.** What about the pest or weed control at 70 g/ha [2, 16] of the same compound?
**A.** 0 to 29%

**Q.** What about the pest or weed control at 140 g/ha [2, 16] of the same compound?
**A.** 0 to 29%

**Q.** What about the pest or weed control at 70 g/ha [2, 17] of the same compound?
**A.** 0 to 29%

**Q.** And the pest or weed control at 140 g/ha [2, 17]?
**A.** 0 to 29%

**Q.** And the melting point?
**A.** 164 to 168 °C
